Legend:
α5-GABAA receptor = α5-GABAA receptor (Homo sapiens (Human), UniProt P18507+P31644); assay: Whole-cell patch clamp electrophysiology, inverse regulation activity in α5β3γ2-HEK293 cells; format: cell-based; conditions: compound 100 nM; GABA 0.05-0.06 μM (about EC7-8); clamped at −60 mV; read-out: Inverse regulation efficiency to α5-GABAA receptor
Text: α, β and γ subunits are essential for the formation of a complete functional GABAA receptor. […] The specific subunit protein sequences are as follows: α5 subunit (protein sequence can be found in GenBank accession number: NM_000810.3); α2 subunit (protein sequence can be found in GenBank accession number: NM_000807.4); β3 subunit (protein sequence can be found in GenBank accession number: NM_000814.5); γ2 subunit (protein sequence can be found in GenBank accession number: NM_000816.3).
(§1) The above cell lines were subcultured. Amplification of α5β3γ2-HEK293 and α2β3γ2-HEK293 cells was used to test the affinity of the compounds to benzodiazepine site (BZD) of the GABAA receptor. During the passage of α5β3γ2-HEK293 cells, some of the suspended cells were spread on a glass slide pretreated with Poly-D-Lysine for electrophysiological testing.
The inverse regulation activity of the test drugs on α5-GABAA receptor was detected by an electrophysiological method. The specific method was as follows:
Compound concentration setting: the final concentration of the compounds used for compound screening was 100 nM. GABA concentration was 0.05-0.06 μM (about EC7-8). […] The extracellular fluid (ECS) ingredients for electrophysiology were as follows: 150 mM NaCl, 5 mM KCl, 2.5 mM CaCl2, 1 mM MgCl2, 10 mM HEPES and 10 mM glucose (pH 7.4); the electrode internal solution (ICS) formula for electrophysiology was as follows: 140 mM CsCl, 11 mM EGTA, 10 mM HEPES, 2 mM CaCl2, 1 mM MgCl2, 4 mM MgATP, 2 mM TEA (pH 7.3). The above reagents were all purchased from Sigma aldrich. GABA (γ-aminobutyric acid, from sigma aldrich, lot: A5385) powder was prepared into a stock solution with pure water and then diluted in ECS. The compound was first prepared into a 4 mM stock solution with DMSO, and then gradually diluted in corresponding concentrations of GABA-ECS. The solutions were all prepared fresh prior to electrophysiological testing.
Electrophysiological signal acquisition were performed by using EPC 10 amplifier and PatchMaster software (HEKA) or Axon 700 B amplifier and Clampex software (AXON). The recording electrode was made by drawing borosilicate glass (purchased from sutter), and has an electrode resistance of 4˜6 MΩ. Extracellular administration was carried out using ALA-VC-8PG (purchased from ALA, USA) system. A single independently grown cell was selected, and lysis was performed after the glass electrode and the cell forming a good seal, to form a whole cell mode. With the cellular membrane potential clamped at −60 mV, recording was carried out in the Gap-free mode. For the test, extracellular fluid was first applied extracellularly for about 20 seconds. After baseline (Iprebaseline) was stabilized, the extracellular fluid was switched to GABA-ECS. At this time, the current (Igaba) caused by GABA can be detected. At about 20-40 seconds, after the current stabilized, the extracellular fluid was switched to a mixed solution of the compound and GABA-ECS, until the current (Itreatment) caused by both the compound and GABA can be detected. Finally, the solution was switched to the extracellular fluid and the test was terminated after recording for 20-40 seconds.
The experimental results were analyzed using PatchMaster v2x90.1 or PatchMaster v2x90.3 software (EPC 10 amplifier) and Clampex10.6 software (Axon700B amplifier). The current value of each stage was calculated according to the average value of the stabilized current under the corresponding conditions. We defined the control current as Igaba−Iprebaseline, and the current after compound treatment as Itreatment−Iprebaseline. The inverse regulation activity of the compounds is expressed as a percentage and is calculated according to the following formula: Inverse regulation efficiency=[(Itreatment−Igaba)/(Igaba−Iprebaseline)]×100%.

[1] = Stability in simulated gastric fluid (SGF); format: physicochemical; conditions: 37° C., 1000 rpm
Method: Simulated gastric fluid (SGF), Manufacturer: Dongguan Chuangfeng Automation Technology Co., Ltd.; Product model: CF-006.
Oscillating constant temperature metal bath, Model: Thermo; Manufacturer: Digital Skaking Drybath.
Temperature: 37° C.; rotating speed: 1000 rpm; sampling time: 0, 4 hours.
Chromatographic column: Welch Xtimate C18 3.0×100 mm, 5 μm. Mobile phase: A: 0.04% trifluoroacetic acid (TFA)/H2O (v/v), B: acetonitrile (ACN). Gradient elution was performed according to the following table, flow rate: 1.0 mL/min; injection volume: 5 μL; column temperature: 35° C.; wavelength: 254 nm.
• (a) preparation of 0.04% TFA/H2O: 400 μL of TFA was measured, placed into 1 L of H2O, and homogenously mixed; • (b) Sample stock solution: about 3 mg of test sample was weighed, and prepared into a stock solution of 10 mmol/L using DMSO; • (c) 50 μL of the sample stock solution was taken, placed into a 5 mL volumetric flask, made up to the scale with the addition of SGF, and homogenously mixed. 400 μL of the solution was taken, four samples in parallel, and shaken at 1000 rpm and 37° C.; • (d) every two samples were taken after 0 and 4 hours respectively, 400 μL of acetonitrile was added, and homogenously mixed, followed by liquid phase injection, and calculation of the change % of the main peak area in the solution after 4 hours relative to 0 hour, two average value reports being taken at each time point.

[2] = molecular target: human α5β3γ2 receptor (α5-GABAA receptor) (Homo sapiens (Human), UniProt P18507+P31644); assay: Radioligand (3H-flunitrazepam) competition binding assay, BZD site; conditions: 3H-flunitrazepam 1 nM; HEK293 membranes expressing human α5β3γ2
Text: α, β and γ subunits are essential for the formation of a complete functional GABAA receptor. In this example, HEK293 cell strains stably expressing human α5-GABAA receptor (comprising α5β3γ2 subunit) and α2-GABAA receptor (comprising α2β3γ2 subunit) were constructed and screened, respectively, by liposome transfection method (Felgner, P. L., et al., Proceedings of the National Academy of Sciences, 1987, 84:7413-7417). The specific subunit protein sequences are as follows: α5 subunit (protein sequence can be found in GenBank accession number: NM_000810.3); α2 subunit (protein sequence can be found in GenBank accession number: NM_000807.4); β3 subunit (protein sequence can be found in GenBank accession number: NM_000814.5); γ2 subunit (protein sequence can be found in GenBank accession number: NM_000816.3).
as §1
Flunitrazepam is a non-specific reagent that binds to the BZD site efficiently. The affinity of the compounds to the BZD sites of the human α5β3γ2 and α2β3γ2 receptors can be determined by competing the compound with ^3H-flunitrazepam (isotope ^3H-labeled flunitrazepam) for binding to these two receptors.
Membrane preparation: HEK293 cells stably expressing human α5β3γ2 receptor or α2β3γ2 receptor were collected, suspended in 50 mM Tris-HCl buffer (pH=7.4), homogenized on ice by a homogenizer for 20 seconds 10 times, and centrifuged at 4° C., 1000 g for 10 min. The supernatant was collected, and the above steps were repeated. The supernatant was centrifuged (33800 g; centrifuge purchased from Thermo, rotor model: A27-8×50) at 4° C. for 60 min, and the precipitate was resuspended in Tris buffer (50 mM Tris-HCl, 10 mM MgCl2, 0.5 mM EDTA, 10% glycerol). The precipitate was the cell membrane. Protein content was determined by BCA (Bicinchoninic Acid) method (BCA kit from Pierce (Annoron)). The cell membrane was prepared into 1 ml aliquot and stored at −80° C.
Radioligand competition binding assay: the assay was carried out in a 200 μL system (96-well plate from Agilent) with 100 μL of cell membrane. The concentration of ^3H-flunitazepam (from PerkinElmer, lot: NET567250 UC) was 1 nM and the concentration of test compound was in the range 1×10^−5-10^−6 M. Flumazenil (from Tocris; lot: 1318) was used as a control. 1 μL of 2 mM flumazenil (final concentration 10 μM) was added to the Low signal control well (Low control, LC) and 1 μL of DMSO (from Sigma aldrich, lot: 472301) was added to the High signal control well (High control, HC). The final target membrane protein concentration was 5 μg/well. All test compound sample stocks were 10 mM DMSO solutions. The working concentration of the samples is to dilute all samples with DMSO to 0.2 mM, and then perform 4-fold continuous gradient dilution for a total of 8 concentration gradients. The 96-well plate was sealed with a plate sealing membrane and then incubated on a shaker at room temperature for 1 hour. Meanwhile, GF/C filter plate was soaked with a plate soaking buffer (0.3% PEI, polyethyleneimine, purchased from Sigma aldrich, model: P314, stored at 4° C.) for at least 0.5 hours. After completion of binding incubation, the cells were collected with a cell collector onto the GF/C filter plate and washed four times with a plate washing buffer (50 mM Tris-HCl, pH 7.4, stored at 4° C.). […]

| Structure (SMILES) | inhibition at 0.1 µM (α5-GABAA receptor) [%] | Residual content in simulated gastric juice after 4 hours (compared with 0 hour content) [1] | Ki [2] [nM] |
| --- | --- | --- | --- |
| Cc1onc(-c2ccc(F)cc2)c1COc1cnc(-c2nnn3c2COCC3)cn1 [Compound 12, 3-(5-((3-(4-fluorophenyl)-5-methylisoxazol-4-yl)methoxy)pyrazin-2-yl)-6,7-dihydro-4H-[1,2,3]triazolo[5,1-c][1,4]oxazine] | 24 | 93% (4 hours) | 2.6 |
| Cc1onc(-c2ccc(F)cc2)c1COc1cnc(-c2cc3n(c(=O)n2)CCN3C)cn1 [Compound 47, 7-(5-((3-(4-fluorophenyl)-5-methylisoxazol-4-yl)methoxy)pyrazin-2-yl)-1-methyl-2,3-dihydroimidazo[1,2-c]pyrimidin-5(1H)-one] | 31 | 82% (4 hours) | – |
| Cc1onc(-c2ccc(F)cc2)c1COc1cnc(N2CCn3c(nnc3C(F)(F)F)C2=O)cn1 [Compound 26, 7-(5-((3-(4-fluorophenyl)-5-methylisoxazol-4-yl)methoxy)pyrazin-2-yl)-3-(trifluoromethyl)-6,7-dihydro-[1,2,4]triazolo[4,3-a]pyrazin-8(5H)-one] | – | 80% (4 hours) | – |
| Cc1onc(-c2ccc(F)cc2)c1COc1ccc(C(=O)NC2CCOCC2)nn1 [WO2009071477, Example 63, reference compound] | – | 0% (4 hours) | – |
| Cc1onc(-c2ccc(F)cc2)c1COc1cnc(N2CCn3cccc3C2=O)cn1 [Compound 45, 2-(5-((3-(4-fluorophenyl)-5-methylisoxazol-4-yl)methoxy)pyrazin-2-yl)-3,4-dihydropyrrolo [1,2-a]pyrazin-1(2H)-one] | – | 87% (4 hours) | – |
| Cc1onc(-c2ccc(F)cc2)c1COc1cnc(-c2cc3n(c(=O)n2)CC24CC(CN32)C4)cn1 [Compound 9, 3-(5-((3-(4-fluorophenyl)-5-methylisoxazol-4-yl)methoxy)pyrazin-2-yl)-7,8-dihydro-1H,6H,9H-7,8a-methanopyrrolo[1′,2′:3.4]imidazo[1,2-c]pyrimidin-1-one] | – | 64% (4 hours) | – |
| Cc1onc(-c2ccc(F)cc2)c1COc1cnc(-c2nnc3n2CCCC3)cn1 [Compound 32, 3-(4-fluorophenyl)-5-methyl-4-(((5-(5,6,7,8-tetrahydro-[1,2,4]triazolo[4,3-a]pyridin-3-yl)pyrazin-2-yl)oxy)methyl)isoxazole] | 35 | 83% (4 hours) | 4.93 |
| Cc1onc(-c2ccc(F)cc2)c1COc1cnc(-c2nnc3n2CCN(C)C3)cn1 [Compound 16] | 15 | 76% (4 hours) | 6.93 |
| Cc1onc(-c2ccc(F)cc2)c1COc1ccc(C(=O)N2CCS(=O)(=O)CC2)cn1 [WO2009071476, Example 112, reference compound] | – | 2% (4 hours) | – |
| Cc1onc(-c2ccc(F)cc2)c1COc1ccc(C(=O)NC2CCOCC2)cn1 [WO2009071476, Example 109, reference compound] | – | 15% (4 hours) | – |
| Cc1onc(-c2ccc(F)cc2)c1COc1cnc(-c2nnc3n2CCN(C2CCC2)C3=O)cn1 [Compound 4, 7-cyclobutyl-3-(5-((3-(4-fluorophenyl)-5-methylisoxazol-4-yl)methoxy)pyrazin-2-yl)-6,7-dihydro-[1,2,4]triazolo[4,3-a]pyrazin-8(5H)-one] | – | 89% (4 hours) | – |

— patent US20250215016A1, “ISOXAZOLE-HETEROCYCLIC DERIVATIVE, PHARMACEUTICAL COMPOSITION AND USE” (SHANGHAI SIMR BIOTECHNOLOGY CO., LTD, priority 2022, published 2025)
